Values after ≈ are worked out from the molar mass of the structure shown. Values joined by “and” are separate entries in the source; they are usually repeats but may differ in a detail not shown here. Equal values may be shown once. Read-outs that look alike come from different tables or passages of the source.
How the values were obtained:
[1] = system: fibroblast to myofibroblast transdifferentiation (primary human lung fibroblasts and primary rodent HSCs); experiment: High content imaging and western based assay of fibroblast to myofibroblast transdifferentiation (α-SMA); assay type: cell-based; conditions: graded, TGF-β induced fibroblast to myofibroblast transdifferentiation
Text: A high content imaging assay, based on α-SMA staining and cell morphological changes associated with fibroblast to myofibroblast transdifferentiation, was established using primary human lung fibroblasts and primary rodent HSCs. Conditions, involving serum starvation and subsequent TGF-β treatment, were identified that facilitate robust in vitro transdifferentiation in a miniaturized (384 well plate) format that is amenable to high throughput small molecule screening. A selective ALK-5 TGF-β1 receptor inhibitor (SB-431542) was used as a positive control. […] This assay was used to identify a hit compound (itraconazole) and was used to evaluate focused panels of itraconazole analogues generated from medicinal chemistry efforts.
The activity of Itraconazole and its analogues was confirmed by analyzing changes in gene expression of multiple genes associated with fibroblast to myofibroblast transdifferentiation using biochemical methods (i.e., Western blot and RT-PCR). These 4-day assays were used to evaluate sets of 6 compounds at a time in 4-point dose response fashion.
After 24 hour incubation, cells were treated with the indicated doses of itraconazole for 48 hours in the presence of 10 ng/mL of TGF-β1 in hepatic stellate medium. Following fixation and staining with an anti smooth muscle actin antibody, cell morphology was analyzed with a Cellomics cell insight imaging reader (FIG. 1 for representative images). Cells were analyzed for mean cellular area of a-SMA staining (FIG. 5a) or mean fluorescence intensity of SMA staining (FIG. 5b).
After 24 incubation, medium was changed to assay medium containing TGF-β1 (10 ng/mL) and simultaneously treated with itraconazole (10 μM), SB431542 (10 μM) or vehicle control (FIG. 6).

[2] = target: Cyp3A4 (Homo sapiens, UniProt P08684); experiment: Cyp reversible inhibition assay (human liver microsomes)
Sequence of Cyp3A4 (P08684 whole entry): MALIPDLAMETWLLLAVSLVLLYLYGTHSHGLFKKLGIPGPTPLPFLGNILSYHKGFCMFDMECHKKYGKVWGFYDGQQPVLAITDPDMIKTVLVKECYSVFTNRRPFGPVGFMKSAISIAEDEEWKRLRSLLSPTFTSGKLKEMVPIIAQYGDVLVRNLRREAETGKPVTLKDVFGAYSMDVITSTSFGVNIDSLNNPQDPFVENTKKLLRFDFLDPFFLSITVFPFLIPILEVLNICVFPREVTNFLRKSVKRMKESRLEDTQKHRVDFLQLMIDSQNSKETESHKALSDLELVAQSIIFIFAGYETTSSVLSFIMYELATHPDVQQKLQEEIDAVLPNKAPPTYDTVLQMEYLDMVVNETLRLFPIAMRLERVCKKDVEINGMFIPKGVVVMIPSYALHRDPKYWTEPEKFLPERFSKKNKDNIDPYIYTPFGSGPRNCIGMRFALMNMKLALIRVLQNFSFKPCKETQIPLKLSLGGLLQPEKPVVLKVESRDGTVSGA
Method: The purpose of this assay was to determine reversible inhibition of Cyp enzyme with a given compound using a substrate probe turnover as the surrogate for inhibition. This was done with human liver microsomes rather an isolated enzyme to account for metabolites of parent drug leading to a potential drug-drug interaction through Cyp inhibition. The substrate turnover (for example conversion of midazolam to hydroxyl midazolam) was monitored by LCMSMS (Q1/Q2=342.2/203.2). Test compounds were tested in a 7-point dose response curve starting from 50 μM to 50 nM (˜3-fold dilution series).
The detailed protocol was as follows: • Prepared test compounds and standard inhibitors working solution (100×) • Pulled microsomes out of the −80° C. freezer to thaw on ice, labeled with the date and put back to freezer immediately after using. • Added 20 μL of the substrate solutions to corresponding wells. • Added 20 μL PB to Blank wells. • Added 2 μL of the test compounds and positive control working solution to corresponding wells. • Added 2 μL MeOH to No Inhibitor wells and Blank wells. • Prepared HLM working solution. • Added 158 μL of the HLM working solution to all wells of incubation plate. • Pre-warmed the plate for about 10 min at 37° C. water bath. • Prepared NADPH cofactor solution. • Added 20 μL NADPH cofactor to all incubation wells. • Mixed and incubated for 10 minutes at 37° C. water bath. • At the time point, terminated the reaction by adding 400 μL cold stop solution (200 ng/mL Tolbutamide in ACN). • Centrifuged the samples at 4000 rpm for 20 minutes to precipitate protein. • Transferred 200 μL supernatant to 200 μL HPLC water and shook for 10 min. • Analyzed samples by LC/MS/MS.

[3] = system: Candida albicans (ATCC 10231); experiment: Candida albicans anti-fungal MIC potency determination; assay type: cell-based
Method: The wild type Candida albicans (ATCC 10231) was used and Fluconazole, amphotericin B, itraconazole and terbinafine were purchased from Sigma and used as positive controls.
The highest assay concentration for all test compounds and fluconazole was 100 μM. Fluconazole was also tested at the highest concentration of 64 μg/ml, and amphotercin B and terbinafine at 16 and 64 μg/ml. The test compounds were in DMSO stock solution at a concentration of 10 mM. Two stock solutions in DMSO were prepared for fluconazole at 10 mM and 6.4 mg/ml. Amphotericin B and terbinafine stock solutions in DMSO were prepared at 1.6 and 6.4 mg/ml.
Serial dilution of 100× stock solutions: 4 μl of stock solution was added into 196 μl of RPMI1640 (MOPS buffered and free of HEPES and sodium bicarbonate) in the first well of a row of a sterile u-bottom 96-well plate. The rest of the wells was filled with 100 μl RPMI1640. The 2-fold serial dilution was made sequentially by transferring 100 μl solution to the next well and mixing by pipetting, until 11th well. The extra 100 μl in 11th well was discarded. Therefore, the compound wells contained 100 μl of 2× of testing concentrations of drugs in RPMI1640. The 12th well was filled with only 100 μl RPMI1640.
C. albicans 3147 (ATCC 10231) glycerol frozen stock was streaked on Sabouraud dextrose agar (SDA). The plate was incubated at 35° C. ambient atmosphere for 20 h. Single colonies were suspended into sterile saline until turbidity reached 0.1 (1-5×10^6 CFU/ml) using a Siemens turbidity meter. This suspension was diluted 50× in RPMI1640 in a 15 ml conical, and then it was further diluted 20× in RPMI1640 in a 50 ml conical. This gave 1-5×10^3 CFU/ml suspension and was used as inoculum. The cell density in inoculum was plate-counted to be 4.94×10^3 CFU/ml.
The plates were incubated at 35° C. in ambient atmosphere. The photos were taken at 24 h and 48 h. The MIC end points for fluconazole and amphotericin B were read according to the M27-A3 protocol (Reference Method for Broth Dilution Antifungal Susceptibility Testing of Yeasts; Approved Standard-Third Edition, M27-A3 standard published Jan. 1, 2008 by Clinical and Laboratory Standards Institute). The MIC for compounds for test cmpds and terbinafine (not mentioned in M27-A3 protcol) were read as if they were azoles.

[4] = Cyp 3A4 midazolam LCMS IC50, human liver microsomes, substrate midazolam
[5] = Cyp 3A4 testosterone LCMS IC50, human liver microsomes, substrate testosterone
[6] = ATCC10231, 24 h, read-out: C. Albicans MIC90 at 24 h
[7] = ATCC10231, 48 h, read-out: C. Albicans MIC90 at 48 h

Row | SMILES | IC50 [2, 4] | IC50 [2, 5] | MIC90 [3, 6] | MIC90 [3, 7] | EC50 [1]
1 | CCC(C)n1ncn(-c2ccc(N3CCN(c4ccc(OC[C@@H]5CO[C@@](Cc6cccnc6)(c6ccc(Cl)cc6Cl)O5)cc4)CC3)cc2)c1=O (stereo partly shown) [Compound 26] | 0.18 µM | 0.283 µM | > 100 µM | > 100 µM | 0.5 to 5 µM
2 | CCC(C)n1cnn(-c2ccc(N3CCN(c4ccc(OC[C@@H]5CO[C@@](Cn6ccnn6)(c6ccc(F)cc6F)O5)cc4)CC3)cc2)c1=O (stereo partly shown) [Compound 2] |  | > 30 µM |  |  | 0.5 to 5 µM
3 | CCC(C)n1ncn(-c2ccc(N3CCN(c4ccc(OC[C@@H]5CO[C@@](Cn6nccn6)(c6ccc(Cl)c(Cl)c6)O5)cc4)CC3)cc2)c1=O (stereo partly shown) [Compound 36] | > 50 µM | > 50 µM | > 100 µM | > 100 µM | 5 to 30 µM
4 | CCC(C)n1ncn(-c2ccc(N3CCN(c4ccc(OC[C@@H]5CO[C@@](Cn6cccn6)(c6ccc(Cl)cc6Cl)O5)cc4)CC3)cc2)c1=O (stereo partly shown) [Compound 27] | > 50 µM | > 50 µM | > 100 µM | > 100 µM | 5 to 30 µM
5 | CCC(C)n1ncn(-c2ccc(N3CCN(c4ccc(OC[C@@H]5CO[C@@](Cn6nccn6)(c6ccc(Cl)cc6)O5)cc4)CC3)cc2)c1=O (stereo partly shown) [Compound 30] | > 50 µM | > 50 µM | > 100 µM | > 100 µM | 0.5 to 5 µM
6 | CCC(C)n1ncn(-c2ccc(N3CCN(c4ccc(OC[C@@H]5CO[C@@](Cn6nccn6)(c6ccc(Cl)cc6Cl)O5)cc4)CC3)nc2)c1=O (stereo partly shown) [Compound 24] |  | > 30 µM |  |  | 0.5 to 5 µM
7 | CCC(C)n1cnn(-c2ccc(N3CCN(c4ccc(OC[C@@H]5CO[C@@](Cn6cncn6)(c6ccc(F)cc6F)O5)cc4)CC3)cc2)c1=O (mixture of isomers) [Compound 1] |  | 4.5 µM |  |  | 0.5 to 5 µM
8 | CCC(C)n1ncn(-c2ccc(N3CCN(c4ccc(OC[C@@H]5CO[C@@](Cc6cncnc6)(c6ccc(Cl)cc6Cl)O5)cc4)CC3)cc2)c1=O (stereo partly shown) [Compound 21] | 0.144 µM | 0.12 µM | > 100 µM | > 100 µM | 0.5 to 5 µM
9 | CCC(C)n1ncn(-c2ccc(N3CCN(c4ccc(OC[C@@H]5CO[C@@](Cc6ccncc6)(c6ccc(Cl)cc6Cl)O5)cc4)CC3)cc2)c1=O (stereo partly shown) [Compound 23] | 0.321 µM |  | > 100 µM | > 100 µM | < 0.5 µM
10 | CCC(C)n1ncn(-c2ccc(N3CCN(c4ccc(OC[C@@H]5CO[C@@](Cn6nccn6)(c6ccccc6Cl)O5)cc4)CC3)cc2)c1=O (stereo partly shown) [Compound 32] | > 50 µM | > 50 µM | > 100 µM | > 100 µM | 5 to 30 µM
11 | CCC(C)n1ncn(-c2ccc(N3CCN(c4ccc(OC[C@@H]5CO[C@@](Cn6nccn6)(c6cccnc6)O5)cc4)CC3)cc2)c1=O (stereo partly shown) [Compound 82] |  |  |  |  | 5 to 30 µM
12 | CCC(C)n1ncn(-c2ccc(N3CCN(c4ccc(OC[C@@H]5CO[C@@](Cn6nccn6)(c6ncccn6)O5)cc4)CC3)cc2)c1=O (stereo partly shown) [Compound 56] |  |  |  |  | 5 to 30 µM
13 | CCC(C)n1ncn(-c2ccc(N3CCN(c4ccc(OC[C@@H]5CO[C@@](Cn6ccnc6)(c6ccc(Cl)cc6Cl)O5)cc4)CC3)cc2)c1=O (stereo partly shown) [Compound 19] | 0.0031 µM | 0.0069 µM | 0.195 µM (≈ 0.137 µg/mL) | 0.195 µM (≈ 0.137 µg/mL) | 0.5 to 5 µM
14 | CCC(C)n1ncn(-c2ccc(N3CCN(c4ccc(OC[C@@H]5CO[C@@](Cn6nccn6)(c6ccncc6)O5)cc4)CC3)cc2)c1=O (stereo partly shown) [Compound 83] |  |  |  |  | 5 to 30 µM
15 | CC(O)C(C)n1ncn(-c2ccc(N3CCN(c4ccc(OC[C@@H]5CO[C@@](Cn6nccn6)(c6ccc(Cl)cc6Cl)O5)cc4)CC3)cc2)c1=O (stereo partly shown) [Compound 28] |  |  |  |  | 0.5 to 5 µM

Further lines, with some results ahead:

Row | IC50 [2, 4] | IC50 [2, 5] | MIC90 [3, 6] | MIC90 [3, 7] | SMILES | EC50 [1]
16 | > 50 µM | > 50 µM |  |  | CCC(C)n1ncn(-c2ccc(N3CCN(c4ccc(OC[C@@H]5CO[C@@](Cn6nccn6)(c6ccccc6C#N)O5)cc4)CC3)cc2)c1=O (stereo partly shown) [Compound 74] | 0.5 to 5 µM
17 | 0.372 µM | 0.545 µM | 0.781 µM (≈ 0.562 µg/mL) | 1.56 µM (≈ 1.12 µg/mL) | CCC(C)n1ncn(-c2ccc(N3CCN(c4ccc(OC[C@@H]5CO[C@@](CCn6cncn6)(c6ccc(Cl)cc6Cl)O5)cc4)CC3)cc2)c1=O (stereo partly shown) [Compound 100] | < 0.5 µM
18 | 2.55 µM and 2.35 µM | 1.77 µM | > 100 µM | > 100 µM | CCC(C)n1ncn(-c2ccc(N3CCN(c4ccc(OC[C@@H]5CO[C@@](Cc6ccnnc6)(c6ccccc6)O5)cc4)CC3)cc2)c1=O (stereo partly shown) [Compound 84] | 0.5 to 5 µM
19 | > 50 µM | > 50 µM | > 100 µM | > 100 µM | CCC(C)n1ncn(-c2ccc(N3CCN(c4ccc(OC[C@@H]5CO[C@@](Cn6nccn6)(c6ccc(Cl)cc6Cl)O5)c(C#N)c4)CC3)cc2)c1=O (stereo partly shown) [Compound 79] | 0.5 to 5 µM
20 | > 50 µM | > 50 µM | > 100 µM | > 100 µM | CCC(C)n1ncn(-c2ccc(N3CCN(c4ccc(OC[C@@H]5CO[C@@](Cn6nccn6)(c6ccccc6C)O5)cc4)CC3)cc2)c1=O (stereo partly shown) [Compound 41] | 0.5 to 5 µM
21 |  |  | > 100 µM | > 100 µM | CCC(C)n1ncn(-c2ccc(N3CCN(c4ccc(OC[C@@H]5CO[C@@](CCCn6cncn6)(c6ccc(Cl)cc6Cl)O5)cc4)CC3)cc2)c1=O (stereo partly shown) [Compound 101] | 5 to 30 µM
22 | > 50 µM | > 50 µM | > 100 µM | > 100 µM | CCC(C)n1ncn(-c2ccc(N3CCN(c4ccc(OC[C@@H]5CO[C@@](Cn6nccn6)(c6ccc(Cl)cc6Cl)O5)c(F)c4)CC3)cc2)c1=O (stereo partly shown) [Compound 49] | 0.5 to 5 µM
23 | > 50 µM | > 50 µM | > 100 µM | > 100 µM | CCC(C)n1ncn(-c2ccc(N3CCN(c4ccc(OC[C@@H]5CO[C@@](Cn6nccn6)(c6ccc(Cl)cc6Cl)O5)cc4F)CC3)cc2)c1=O (stereo partly shown) [Compound 54] | < 0.5 µM
